Measured values as given in PubChem BioAssay AID330 (DTP/NCI, 2004).
Values joined by “and” are separate entries in the source; they are usually repeats but may differ in a detail not shown here. Equal values may be shown once. Inconclusive results and toxic doses are left out. How the source made its calls: active means survival T/C of 150% or more; inactive means T/C below 125% in these data. Peptide text beside a SMILES is read from it. * marks the point of attachment. Cbz = O=C(OCc1ccccc1)*

System: P388 leukemia ip, CD2F1 mice, survival T/C
Experiment: NCI In Vivo Anticancer Drug Screen. Data for tumor model P388 Leukemia (intraperitoneal) in CD2F1 (CDF1) mice
Conditions: endpoint: median survival time, higher = longer survival
Summary of the method: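 Mice carrying the transplanted tumor received test compound or vehicle. Survival was recorded in each group, and the value is the treated-group measurement divided by that of the vehicle-treated control group.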

[1] = dose: 50.0 mg/kg/injection, schedule: Q01DX009 (ip), vehicle: saline with Tween-80
[2] = dose: 100.0 mg/kg/injection, schedule: Q01DX009 (ip), vehicle: saline with Tween-80
[3] = dose: 50.0 mg/kg/injection, schedule: Q01DX005 (ip), vehicle: saline with Tween-80
[4] = dose: 100.0 mg/kg/injection, schedule: Q01DX005 (ip), vehicle: saline with Tween-80
[5] = dose: 200.0 mg/kg/injection, schedule: Q01DX005 (ip), vehicle: saline with Tween-80
[6] = dose: 50.0 mg/kg/injection, schedule: Q01DX009 (ip), vehicle: Klucel (hydroxypropylcellulose) (HPC)
[7] = dose: 100.0 mg/kg/injection, schedule: Q01DX009 (ip), vehicle: Klucel (hydroxypropylcellulose) (HPC)
[8] = dose: 200.0 mg/kg/injection, schedule: Q01DX009 (ip), vehicle: Klucel (hydroxypropylcellulose) (HPC)
[9] = dose: 50.0 mg/kg/injection, schedule: Q04DX003 (ip), vehicle: saline with Tween-80
[10] = dose: 100.0 mg/kg/injection, schedule: Q04DX003 (ip), vehicle: saline with Tween-80
[11] = dose: 50.0 mg/kg/injection, schedule: Q01DX009 (ip), vehicle: saline
[12] = dose: 100.0 mg/kg/injection, schedule: Q01DX009 (ip), vehicle: saline
[13] = dose: 200.0 mg/kg/injection, schedule: Q01DX009 (ip), vehicle: saline with Tween-80
[14] = dose: 200.0 mg/kg/injection, schedule: Q04DX003 (ip), vehicle: saline with Tween-80

Measured: T/C

O=C1C(Cl)OC(c2ccccc2)=NN1c1ccccc1 (stereo unspecified)
inactive: dose: 50.0 mg/kg/injection, schedule: Q01DX005 (ip), vehicle: distilled water + alcohol 97 % of control | dose: 100.0 mg/kg/injection, schedule: Q01DX005 (ip), vehicle: distilled water + alcohol 107 % of control | dose: 200.0 mg/kg/injection, schedule: Q01DX005 (ip), vehicle: distilled water + alcohol 97 % of control

CCOC(=O)N1CCc2cc(OC)c(OC)cc2/C1=C/c1cc(Br)sc1Br
inactive: dose: 100.0 mg/kg/injection, schedule: Q04DX002 (ip), vehicle: Klucel (hydroxypropylcellulose) (HPC) 102 % of control | dose: 200.0 mg/kg/injection, schedule: Q04DX002 (ip), vehicle: Klucel (hydroxypropylcellulose) (HPC) 103 % of control | dose: 400.0 mg/kg/injection, schedule: Q04DX002 (ip), vehicle: Klucel (hydroxypropylcellulose) (HPC) 105 % of control

CCC(C)C(NC(=O)OCc1ccccc1)C(=O)NC(CC(C)C)C(=O)O (stereo not drawn) (Cbz-Ile-Leu-OH; configuration not given here)
inactive: dose: 50.0 mg/kg/injection, schedule: Q01DX005 (ip), vehicle: Klucel (hydroxypropylcellulose) (HPC) 114 % of control | dose: 100.0 mg/kg/injection, schedule: Q01DX005 (ip), vehicle: Klucel (hydroxypropylcellulose) (HPC) 99 % of control | dose: 200.0 mg/kg/injection, schedule: Q01DX005 (ip), vehicle: Klucel (hydroxypropylcellulose) (HPC) 99 % of control

CC(C(=O)NN)C(C)(C)C (stereo unspecified)
inactive: dose: 100.0 mg/kg/injection, schedule: Q01DX001 (ip), vehicle: saline with Tween-80 96 % of control | dose: 200.0 mg/kg/injection, schedule: Q01DX001 (ip), vehicle: saline with Tween-80 99 % of control | dose: 400.0 mg/kg/injection, schedule: Q01DX001 (ip), vehicle: saline with Tween-80 99 % of control

COC(=O)C1=[N+]([O-])c2ccccc2C1C(O)C(=O)OC (stereo unspecified)
inactive: dose: 60.0 mg/kg/injection, schedule: Q01DX005 (ip), vehicle: saline with Tween-80 98 % of control | dose: 120.0 mg/kg/injection, schedule: Q01DX005 (ip), vehicle: saline with Tween-80 93 % of control | dose: 240.0 mg/kg/injection, schedule: Q01DX005 (ip), vehicle: saline with Tween-80 98 % of control

C#CCOc1ccccc1C(=O)NNc1ccc([N+](=O)[O-])cc1[N+](=O)[O-]
inactive: [1] 97 % of control | [2] 87 % of control

O/N=C\C(=N/O)c1ccc(O)c(O)c1
inactive: dose: 100.0 mg/kg/injection, schedule: Q04DX002 (ip), vehicle: saline with Tween-80 107 % of control | dose: 200.0 mg/kg/injection, schedule: Q04DX002 (ip), vehicle: saline with Tween-80 108 % of control | dose: 400.0 mg/kg/injection, schedule: Q04DX002 (ip), vehicle: saline with Tween-80 102 % of control

Cn1c(-c2ccc(Br)cc2)cc2[nH]c(=S)nc(N)c2c1=O
inactive: dose: 25.0 mg/kg/injection, schedule: Q01DX005 (ip), vehicle: saline with Tween-80 105 % of control | [3] 100 % of control | [4] 102 % of control | [5] 96 % of control

COC(=O)C1(C(=O)OC)C2C=CC(Cl)C21 (stereo unspecified)
inactive: [6] 96 % of control | [7] 104 % of control | [8] 93 % of control

CN(C)c1ccc(C(=N)Cc2ccc3ccccc3n2)cc1
inactive: dose: 37.5 mg/kg/injection, schedule: Q01DX009 (ip), vehicle: Klucel (hydroxypropylcellulose) (HPC) 106 % of control | [6] 92 % of control | dose: 75.0 mg/kg/injection, schedule: Q01DX009 (ip), vehicle: Klucel (hydroxypropylcellulose) (HPC) 98 % of control | [7] 95 % of control | dose: 150.0 mg/kg/injection, schedule: Q01DX009 (ip), vehicle: Klucel (hydroxypropylcellulose) (HPC) 109 % of control | [8] 100 % of control

C[As](C)SCCC(CCCCC(=O)O)S[As](C)C (stereo unspecified)
inactive: dose: 12.5 mg/kg/injection, schedule: Q01DX009 (ip), vehicle: Klucel (hydroxypropylcellulose) (HPC) 109 % of control and 111 % of control | dose: 25.0 mg/kg/injection, schedule: Q01DX009 (ip), vehicle: Klucel (hydroxypropylcellulose) (HPC) 122 % of control | dose: 25.0 mg/kg/injection, schedule: Q04DX003 (ip), vehicle: saline with Tween-80 106 % of control | [6] 100 % of control | [9] 97 % of control | [10] 108 % of control

CCOC(=O)/C(=N\N=P(N(C)C)(N(C)C)N(C)C)[As](C)C
inactive: [11] 103 % of control | [12] 99 % of control

C#CC(=O)OC
inactive: dose: 25.0 mg/kg/injection, schedule: Q04DX002 (ip), vehicle: saline 102 % of control | dose: 50.0 mg/kg/injection, schedule: Q04DX002 (ip), vehicle: saline 98 % of control | dose: 100.0 mg/kg/injection, schedule: Q04DX002 (ip), vehicle: saline 106 % of control

CCOC(=O)c1c(C)cn[nH]c1=O
inactive: [1] 96 % of control | [2] 99 % of control | [13] 95 % of control

O=C(NCCO)Nc1ccccc1F
inactive: dose: 100.0 mg/kg/injection, schedule: Q04DX003 (ip), vehicle: saline 100 % of control | dose: 200.0 mg/kg/injection, schedule: Q04DX003 (ip), vehicle: saline 95 % of control | dose: 400.0 mg/kg/injection, schedule: Q04DX003 (ip), vehicle: saline 104 % of control

CCOC(=O)c1c[nH]c2c(=O)n(C)c(=O)[nH]c12
inactive: [10] 93 % of control | [14] 100 % of control

COc1ccc(-c2sc(/N=C/c3cc(OC)c(OC)c(OC)c3)c(C#N)c2C)cc1OC
inactive: [9] 101 % of control | [10] 99 % of control | [14] 100 % of control | dose: 400.0 mg/kg/injection, schedule: Q04DX003 (ip), vehicle: saline with Tween-80 90 % of control

C=C(CSc1ccc(C(=O)O)c([N+](=O)[O-])c1)c1ccc([N+](=O)[O-])cc1
inactive: dose: 12.5 mg/kg/injection, schedule: Q01DX009 (ip), vehicle: saline 105 % of control | dose: 25.0 mg/kg/injection, schedule: Q01DX009 (ip), vehicle: saline 106 % of control | [11] 99 % of control and 90 % of control

S=C(N/N=C/c1ccc(Cl)cc1)Nc1ccccc1
inactive: [7] 101 % of control | [8] 100 % of control | dose: 400.0 mg/kg/injection, schedule: Q01DX009 (ip), vehicle: Klucel (hydroxypropylcellulose) (HPC) 93 % of control

O=C(CN1CCCCC1)Nc1ccc(Br)cc1
inactive: [1] 106 % of control | [11] 103 % of control and 113 % of control | [2] 100 % of control | [12] 105 % of control | [13] 111 % of control | dose: 200.0 mg/kg/injection, schedule: Q01DX009 (ip), vehicle: saline 120 % of control | dose: 400.0 mg/kg/injection, schedule: Q01DX009 (ip), vehicle: saline with Tween-80 102 % of control

COc1cc(=O)n(-c2ccccc2)nc1C#N
inactive: [3] 93 % of control | [4] 92 % of control | [5] 90 % of control

CCn1c(Cl)c(/C=C2/N=C(c3ccccc3)OC2=O)c2ccccc21
inactive: dose: 25.0 mg/kg/injection, schedule: Q01DX001 (ip), vehicle: saline with Tween-80 95 % of control | dose: 50.0 mg/kg/injection, schedule: Q01DX001 (ip), vehicle: saline with Tween-80 86 % of control | dose: 100.0 mg/kg/injection, schedule: Q01DX001 (ip), vehicle: Klucel (hydroxypropylcellulose) (HPC) 92 % of control | dose: 400.0 mg/kg/injection, schedule: Q01DX001 (ip), vehicle: Klucel (hydroxypropylcellulose) (HPC) 86 % of control
